Literature values, collected in patent US9694043B2, “Composition for preventing or treating hearing loss” (UNIVERSITY-INDUSTRY COOPERATION GROUP OF KYUNG HEE …, priority 2011, dated 2017).

What was measured:
animal model = settings: high level of NAC
soldiers = settings: 600 U.S. navy soldiers, NAC for 2 weeks during weapons training

CC(=O)N[C@@H](CS)C(=O)O [NAC, N-acetyl cysteine]
Effect on noise-induced hearing loss in animal model (animal model): preventive effects on noise-induced hearing loss but limited effects on permanent hearing loss
Permanent hearing loss (soldiers): decrease in permanent hearing loss
